Data: a melting point compilation (Tetko et al.; mined from patent text by program, amines drawn as free bases though some values may be those of a salt)

Structure (SMILES)	melting point
O=C(Cc1ccccc1)Nc1ccccc1C(F)(F)F	104 °C
Cc1cc(C)c2c(c1)cc(C(=O)O)n2CC(=O)OC(C)(C)C	210 °C
ClCSc1ncc(Cl)cn1	78 °C
COc1cc2c(cc1OC)CN(CCCCc1ccc(NC(=O)c3nc4ccccc4nc3C)cc1)CC2	146 °C
CN(C)CCCNCC(O)C(O)C(O)C(O)CO (configuration not stated)	107 to 108 °C
OC(c1ccc2c(c1)CCN2)(C(F)F)C(F)(F)F (configuration not stated)	129 to 132 °C
O=C1C=C(O)CC(CCc2ccc(O)cc2)(C2CCCCC2)O1 (configuration not stated)	52 to 58 °C
CCn1c(=O)c(C#N)c(O)c2ccc(C)nc21	274 to 276 °C
CC1(C)CCC(C)(C)c2cc(O)c(N)cc21	225 °C
CC(C)n1nc(-c2nc(C3=CCN(C)CC3)c(N)nc2-c2ccccc2)ccc1=O	209 to 211 °C
Cc1cc(Cl)ccc1N=C1NCCN1	137 to 138 °C
CC(C)C[C@H](NC(=O)c1ccco1)C(=O)N[C@@H](C(C)C)[C@@H](O)c1c(-c2ccccc2)c1=O	101 to 105 °C
CCOC(=O)Cc1cc(O)ccc1CCc1cc2cc(C#N)ccc2o1	84 to 86 °C
CC(CC(=O)O)=NNC(=N)N	139 to 140 °C
C[C@H](C#Cc1sc(Cc2ccc(F)cc2)cc1Cl)N(O)C(N)=O	131 to 132 °C
Cc1ccc(S(=O)(=O)OCC2Cc3cccc(-c4ccsc4)c3O2)cc1 (configuration not stated)	90 to 92 °C
COC(=O)C(O)C(CC1CCCCC1)NC(=O)C(Cc1c[nH]cn1)NC(=O)C(CC(=O)N1CCOCC1)Cc1cccc2ccccc12 (mixture of isomers)	83 to 87 °C
O=C1CCc2ccc(Oc3c(F)cc(C(F)(F)F)cc3Cl)cc21	75 °C
CC1(c2nc(-c3ccc(Cl)cc3)c(CCC(=O)O)o2)CCCCC1	138 to 139 °C
O=S(=O)(Nc1cccc2cc(C3=NCC(CCO)S3)[nH]c12)c1cccs1 (configuration not stated)	156 to 158 °C
CC(C)(SC(F)(F)F)C(O)C(Oc1ccc(Cl)cc1)n1cncn1 (configuration not stated)	85 to 87 °C

Structure (SMILES)	melting point
O=C(N[C@H](Cc1cccc(OC(F)(F)C(F)F)c1)[C@@H](O)c1cccc(F)n1)c1cccc2c1C=CCCC2 (racemic)	151 to 152 °C
CCCCCCCCCCCCNc1ncnc2nc[nH]c12	159 to 160 °C
COc1ccc(Cl)cc1C(=O)NCCOc1ccc(CC2SC(=O)NC2=O)cc1 (configuration not stated)	66 to 67 °C
Cc1ccc(C(=O)Nc2c(NC(=O)CN3CCCCC3)ccc3c2C(=O)c2ccccc2C3=O)cc1	213 to 214 °C
Cc1ccc2occ(CC3=NOS(=O)N3)c2c1 (configuration not stated)	152 to 153 °C
CCCN(CCC)C1Cc2cccc3[nH]c(=S)n(c23)C1 (configuration not stated)	150 to 151 °C
C#CC[C@H]1CC[C@H](CO)CC1	106 to 108 °C
COc1cc(C(O)CN)cc(OC)c1OC (configuration not stated)	141 °C
CS(=O)(=O)c1ccc(-c2cc(C(F)(F)F)nn2-c2ccc(C#N)cc2)cc1F	152 to 153 °C
COc1ccc2c(c1)CC(=O)CO2	67 to 72 °C
COc1cc(C2=C(c3c[nH]c4ccccc34)C(=O)NC2=O)cc(OC)c1OC	227 °C
CC(=O)Nc1ccc(C(=O)Nc2ccc(O)cc2)cc1	275 to 277 °C
Cn1c(S)nnc1C(O)(c1ccc(Cl)cc1)c1cc2c3c(c1)c(-c1cccc(Cl)c1)cc(=O)n3CO2 (configuration not stated)	193 °C
Cn1cc(-c2ccc(F)cc2)c(=O)c(-c2cccc(C(F)(F)F)c2)c1	133 to 134 °C
CC(C)(C)c1cc(CBr)ccc1O[Si](C)(C)C(C)(C)C	54 to 55 °C
CC(C)(C)N1CC=C(c2c[nH]c(-c3ccc(F)cc3)c2-c2ccncc2)CC1	242 to 244 °C
COC(=O)COc1c(CCC(C)C)c(OC)cc(OC)c1C(=O)CCc1ccc(OC)c(O)c1	94 to 95 °C
CC(C)C[C@H](NC(=O)OCc1ccccc1)C(=O)N[C@@H](Cc1ccccc1Cl)C(=O)CSCc1ccco1	110 °C
COc1ccc(OC(CCCN(C)C2C3CCC2CNC3)c2ccc(C#N)cc2)cc1OC (configuration not stated)	47 to 53 °C
CC(=O)c1ccc2c(c1)OCC(=O)N2	197 to 198 °C
O=C(CCC(F)([N+](=O)[O-])[N+](=O)[O-])NNC(=O)C(F)(F)C(F)(F)F	128 to 132 °C

Structure (SMILES)	melting point
CCCCCCCCCCCCCCC(COC(C)=O)(COC(C)=O)NC(C)=O	84 to 85.5 °C
CCNC(=O)c1cc(N(C)C)ccc1[Si](C)(C)C	141 to 143 °C
Cc1nnc(-c2ccc3occ(-c4ccc(SC(F)(F)F)cc4)c3c2)o1	170 to 171 °C
O=C(NOCC(O)CO)c1cc(Br)c(F)c(F)c1Nc1ccccc1F (configuration not stated)	144 °C
O=C(O)COc1cccc2c1Cc1sc(S(=O)(=O)CCCC(c3ccccc3)c3ccccc3)nc1-2	97 to 101 °C
COc1ccc(-c2cc(F)c(F)cc2-c2ccc(S(C)(=O)=O)cc2)cc1OC	140 to 141 °C
CCCCCCC(C)(C)c1cc(OCc2ccccc2)c(C2=C(C(C)(C)C(N)=O)CCC(C)C2)c(OCc2ccccc2)c1 (configuration not stated)	113 to 114 °C
Cn1cc(S(=O)(=O)Cl)c(=O)c2ccc(F)cc21	194 to 196 °C
Cc1nc[nH]c1CSCCN=C(NC#N)NCCCCCCCCN	122 to 124 °C
N#Cc1ccc2ccc(CBr)cc2c1	110 to 116 °C
CCc1n[nH]c(CC)c1Oc1cc(Cl)cc(Cl)c1	114 to 115 °C
CCCOC(=O)Cc1ccc(N[C@@H](CCC(N)=O)C(=O)O)cc1	178 to 179 °C
CCCCOc1ccc(C(=O)NC[C@@H](C(=O)NO)N2CCN(S(C)(=O)=O)CC2)cc1	130 °C
CC1(c2ccccc2)C(=O)c2c(cc(O)c(Cl)c2Cl)C1c1ccccc1 (configuration not stated)	238 to 244 °C
C=C(c1ccc(Cl)cc1)c1ccc(NC(=O)c2cc(I)cc(I)c2O)cc1Cl	171 to 175 °C
OCC1=CC=C(COc2cc(C(F)(F)F)ccc2Cl)SS1	94.2 to 96 °C
CCNC(=O)CCCC1CCN(Cc2cnc3cc(NC(=O)c4ccc(-c5ccc(F)cc5)cc4)ccc3c2)CC1	209 to 213 °C
Cc1nc(O)c2c(n1)N(c1c(C)cc(Br)cc1C)C(=O)C2C (configuration not stated)	271 to 273 °C
Cc1cc(N2CCCCCC2)c2ccc(NCc3ccc(C(F)(F)F)cc3)cc2n1	90 to 93 °C
N#Cc1ccccc1C=C1c2ccccc2CCc2ccccc21	185 °C
COc1cc2sc(C)nc2cc1C	89 to 90 °C

More lines, now with the values ahead:

melting point	Structure (SMILES)
179 to 180 °C	COc1cc(COc2nn(-c3ccccc3)cc2C=O)ccc1OCc1cn(-c2ccccn2)nc1C
84 to 87 °C	CC(=O)c1ccc(-c2cccc(-c3nc(C(C)C)[nH]c3-c3cccc(C)n3)c2)cc1
48.5 to 49 °C	Cc1ccc(C)c(C(Cl)=NNc2ccccc2)c1
65 to 67 °C	Fc1cc2c(c(-c3c(Cl)cccc3Cl)c1)OC(CN1CCCC1)C2 (configuration not stated)
133 to 135 °C	CC1Nc2cc(Br)ccc2NC1=O (configuration not stated)
177 to 178 °C	Cc1nn(-c2ccccn2)c2ncc(C(=O)c3ccccc3)c(Cl)c12
145 °C	N=C(N)c1ccc(N2CC(CN3CCC(CC(=O)O)(C(=O)O)CC3)OC2=O)cc1 (configuration not stated)
214 to 216 °C	COc1nccc(C(F)(F)F)c1S(=O)(=O)Nc1nc2c(OC)cnc(OC)n2n1
178 to 181 °C	CC(CC1=C(c2ccc(O)cc2)CCCNC1=O)N1CCCCC1 (configuration not stated)
167 to 168 °C	CCOC(=O)C(=NO)c1ccccc1[N+](=O)[O-]
100 to 102 °C	CCc1cc(C(=O)c2ccccc2Cl)c(NC)s1
133 °C	CCCCCCC(=O)Nc1cccc2c1C(=O)c1ccccc1C2=O
69 to 70 °C	COc1ccc2oc(Cc3ccccc3)c(CC#N)c2c1
185 to 186 °C	CC1=CC(O)C(OC(=O)c2ccc(N)cc2N)C(C)(C)CC1=O (configuration not stated)
299 to 304 °C	Clc1[nH]ncc1-c1csc(Nc2ccccn2)n1
266 to 267 °C	CC(C)n1nc(-c2c(-c3ccccc3)nn3ccc(NC(=O)c4ccccc4)cc23)ccc1=O
260 to 270 °C	Cc1c[nH]c(Nc2ccc(C3=NNC(=O)CC3C)cc2)nc1=O (configuration not stated)
219 to 222 °C	CC(=O)N(c1nc2nc(C)cc(C)n2n1)S(=O)(=O)c1c(Cl)cccc1Cl
177 to 179 °C	COc1cc(CSc2nc3cnccc3[nH]2)cc(OC)c1
119 to 120 °C	Nc1nc(Cl)cc(C=C(Cl)Cl)n1

melting point	Structure (SMILES)
218 to 220 °C	COc1nc(N)nc(-c2ccccc2)c1-c1ccc(=O)n(C)n1
232 to 234 °C	O=C1Nc2ccc(-c3cccnc3)cc2C12CCCCC2
215 to 220 °C	CC(=O)OCC1CCn2c(c(C3=C(c4cn(C)c5ccc(Br)cc45)C(=O)OC3=O)c3ccccc32)C1 (configuration not stated)
156 to 158 °C	COc1ccc(C2CC(n3ccnc3)c3ccccc3N2)cc1 (configuration not stated)
209 to 211 °C	COc1ccc(-c2c(C3CCN(C)CC3)[nH]c(=O)c3ccccc23)cc1
113 °C	CCc1csc(-c2ccc(OCCC3CCN(c4ccc(C)nn4)CC3)cc2)n1
192 to 194 °C	Cn1c(=O)nc(-c2ccccc2F)c2cc(Cl)sc21
142 to 144 °C	Cc1cc(=O)c2c(OCCOc3ccccc3)cccc2o1
162 to 163 °C	CCN1CCC(N(C)S(=O)(=O)c2ccc(Nc3nccc(Nc4ccc(F)cc4)n3)cc2)CC1
143 to 145 °C	CCN1c2ncc(CCc3cccc(I)c3)cc2C(=O)N(C)c2ccc(Cl)nc21
154 to 157 °C	CC1CC(N)=NN1c1ccccn1 (configuration not stated)
233 to 245 °C	CCOC(=O)c1cnc(Cc2ccccc2)c(C)c1Cl
153 °C	CNC(=S)C1(c2ccccn2)CCCCS1 (configuration not stated)
176 to 179 °C	Nc1ccc(C(=O)N2CCCCc3sccc32)c(Cl)c1
127 °C	CCCC1=NN(c2ccc(Br)cc2)C(=O)C1=CNc1ccccc1CC
166 to 168 °C	O=C1CC[N+]([O-])=C(c2ccccc2F)c2cc(Cl)ccc21
156 to 157 °C	CCCCOC(=O)COc1ccc(C(=O)Nc2ccccc2Sc2ccc(Cl)cc2-c2nnn[nH]2)cc1
177 to 180 °C	O=C1CCC(c2ccccc2)(c2ccccc2)CN1
248 to 251 °C	CC1(Cl)C(=S)Nc2ccc(Cl)cc21 (configuration not stated)
